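Cells were grown in 96-well plates and exposed to each compound for 48 hours at five concentrations; endpoints were interpolated linearly between bracketing concentrations, or set to the highest concentration if not reached. GI50 marks 50% less growth. TGI: total growth inhibition.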
Columns and labels:
Experiment in all cases: DTP human tumour cell line panel, 48 h
786-0 renal = test system: 786-0 renal
HCT-116 colon = test system: HCT-116 colon
HOP-92 NSCLC = test system: HOP-92 NSCLC
LOX IMVI melanoma = test system: LOX IMVI melanoma
NCI-H23 lung = test system: NCI-H23 lung
PC-3 prostate = test system: PC-3 prostate
SF-539 CNS = test system: SF-539 CNS
SNB-19 CNS = test system: SNB-19 CNS
SR leukemia = test system: SR leukemia
UO-31 renal = test system: UO-31 renal

SMILES | GI50 (786-0 renal) | TGI (786-0 renal) | GI50 (HCT-116 colon) | TGI (HCT-116 colon) | GI50 (HOP-92 NSCLC) | TGI (HOP-92 NSCLC) | GI50 (LOX IMVI melanoma) | TGI (LOX IMVI melanoma) | GI50 (NCI-H23 lung) | TGI (NCI-H23 lung) | GI50 (PC-3 prostate) | TGI (PC-3 prostate) | GI50 (SF-539 CNS) | TGI (SF-539 CNS) | GI50 (SNB-19 CNS) | TGI (SNB-19 CNS) | GI50 (SR leukemia) | TGI (SR leukemia) | GI50 (UO-31 renal) | TGI (UO-31 renal)
CCOC(=O)c1c(NN2CCN(CC(F)(F)F)CC2)oc(/C=C2\C=Nc3ncccc32)c1O | 3.13 µM | 18.8 µM | 2.09 µM | 17.7 µM | 12.9 µM | 40.9 µM | 2.28 µM | 11.8 µM | 7 µM | 21.7 µM | 4.04 µM | 21.4 µM | 2.33 µM | 13.9 µM | 20.7 µM | > 100 µM | 0.689 µM | 3.81 µM | 5.11 µM | 28.9 µM
COc1ccc(OC)c(N2CC(O)=C(c3nc4ccccc4s3)C2=N)c1 | > 100 µM | > 100 µM | 57.5 µM | > 100 µM | 40.6 µM | > 100 µM | 45.4 µM | > 100 µM | > 100 µM | > 100 µM | 52.5 µM | > 100 µM | 83.8 µM | > 100 µM | > 100 µM | > 100 µM | 6.77 µM | > 100 µM | 36.2 µM | > 100 µM
COc1cc(-n2cc(-c3ccc(Cl)cc3)n(-c3ccccc3)c2=O)cc(OC)c1OC | 30.7 µM | > 100 µM | 13.7 µM | > 89 µM | 22.7 µM | > 100 µM | 24.3 µM | > 100 µM | 35.1 µM | > 100 µM | > 37.7 µM | > 100 µM | 27.1 µM | > 100 µM | 36.7 µM | > 100 µM | 4.48 µM | > 38.4 µM | 16.6 µM | > 93.9 µM
c1cc(OCCN2CCCC2)ccc1CNc1ccc2nc(CCC3CCCCC3)[nH]c2c1 | 1.57 µM | 3.27 µM | 1.43 µM | 3.2 µM | 0.471 µM | 2.25 µM | 1.67 µM | 3.11 µM | 2.45 µM | 8.17 µM | 1.93 µM | 5.16 µM | 1.51 µM | 3 µM | 2.91 µM | 10 µM | 0.29 µM | 1.03 µM | 1.42 µM | 2.75 µM
O=C1OC2(c3ccc(O)cc3Oc3cc(O)ccc32)c2cccc3cccc1c23 | 27 µM | 81.3 µM | 22.4 µM | > 100 µM | 19 µM | 97.6 µM | 18.1 µM | 36 µM | 20 µM | 49.9 µM | 36.2 µM | > 100 µM | 18.7 µM | 43.4 µM | 17.5 µM | 34.1 µM | 27.5 µM | > 100 µM | 17.1 µM | > 100 µM
CCOC(=O)Cc1csc(NC(=O)C(OC(=O)c2ccc(Cl)cc2)c2ccccc2)n1 (stereo unspecified) | 42.8 µM | > 100 µM | 29 µM | > 100 µM | 27.2 µM | > 100 µM | 33.6 µM | > 100 µM |  |  | 35.1 µM | > 100 µM | 25.3 µM | 54.8 µM | 50.5 µM | > 100 µM | 13.4 µM | 58.7 µM | 47.1 µM | > 100 µM
Cc1ccc(/C(=N/NS(=O)(=O)c2cc(C)c(Cl)cc2Cl)Sc2cc(Cl)c(C)cc2S(N)(=O)=O)cc1 | > 100 µM | > 100 µM | > 100 µM | > 100 µM |  |  | > 100 µM | > 100 µM | > 100 µM | > 100 µM | > 100 µM | > 100 µM | > 100 µM | > 100 µM | > 100 µM | > 100 µM | 41 µM | > 100 µM | > 100 µM | > 100 µM
COc1cccc(S(=O)(=O)NC2=NCCN2C(=S)SN2CCn3c2nsc3=S)c1 | 31.6 µM | > 100 µM | 16.4 µM | 33 µM | 44.4 µM | > 100 µM | 13.2 µM | 26.5 µM |  |  | 36.2 µM | > 100 µM | 27.3 µM | 70 µM | 49.8 µM | > 100 µM | 18 µM | 51.3 µM | 23.3 µM | 49.1 µM
COC(=O)CCc1n(Cc2ccc3ccccc3c2)c2ccccc2[n+]1Cc1ccc2ccccc2c1 | 1.14 µM | 2.45 µM |  |  | 0.152 µM | 1.12 µM | 0.557 µM | 1.93 µM | 0.583 µM | 2.56 µM | 0.402 µM | 1.74 µM | 1.07 µM | 2.45 µM | 0.582 µM | 1.98 µM | 0.403 µM | 2.05 µM | 2.25 µM | 10.2 µM
CC(=O)N1c2ccccc2N(C(C)=O)C1c1ccc(C2N(C(C)=O)c3ccccc3N2C(C)=O)[nH]1 |  | > 100 µM |  | > 100 µM |  | > 100 µM |  | > 100 µM |  | > 100 µM |  |  |  | > 100 µM |  | > 100 µM |  | > 100 µM |  | > 100 µM
CCOC(=O)NC(=O)c1cn(CCSCCOC(=O)NCCCCCCNC(=O)OCCSCCn2cc(C(=O)NC(=O)OCC)c(=O)n(C)c2=O)c(=O)n(C)c1=O |  | 79.8 µM |  | 52.6 µM |  | > 100 µM |  | > 100 µM |  | > 100 µM |  |  |  | 80.1 µM |  | > 100 µM |  | > 100 µM |  | > 100 µM
COc1ccc(Nc2ncc(I)c(NCCCNC(=O)C3CCC3)n2)cc1 | 5.58 µM | 29.2 µM | 4.01 µM | 20.6 µM | 3.04 µM | 29.2 µM | 1.66 µM | 13.6 µM | 5.26 µM | 46.9 µM |  |  | 3.47 µM | 18.4 µM | 5.26 µM | > 100 µM | 4.91 µM | > 100 µM | 0.73 µM | 3.85 µM
Cn1cnc([N+](=O)[O-])c1Sc1n[nH]c(-c2ccc(Cl)cc2)n1 |  | 51.5 µM |  | 58.1 µM |  | 37.6 µM |  | 30.1 µM |  | 37.9 µM |  |  |  | 29.9 µM |  | 51 µM |  | 42 µM |  | 60.5 µM
COc1ccc(C2(Cl)C(Cl)(C(F)(F)F)C2(Cl)C(F)(F)F)cc1 (stereo unspecified) |  | 31 µM |  | 23.9 µM |  | 27.1 µM |  | 20.5 µM |  | 27.8 µM |  |  |  | 28.9 µM |  | 29.1 µM |  | 30.7 µM |  | 29.5 µM

Source: PubChem BioAssay (NCI)
